{"source": "paper PMC8577775", "about": "“Small molecule allosteric inhibitors of RORγt block Th17-dependent inflammation and associated gene expression in vivo” (PLoS ONE, 2021)", "key": {"[1]": {"system": "plaque psoriasis patients", "conditions": "cited from earlier work"}, "[2]": {"system": "IMQ-induced skin inflammation in Balb/c mice", "test": "Imiquimod (IMQ)-induced skin inflammation model", "assay_type": "in vivo, mouse", "conditions": "for ear thickness: IMQ vehicle 0.21 ± 0.03 mm", "experimental": "For IMQ-induced skin inflammation, wild-type (WT) Balb/c female mice, 5–8 weeks of age, were purchased from Charles River Laboratories. All mice were housed in pathogen-free conditions at Bristol Myers Squibb (Cambridge, MA). Aldara cream containing 5% imiquimod (Patterson Veterinary Supply, Inc; Devens, MA) was applied to the ears daily (11–14 mg) for 3 days. Mice were treated twice daily (BID) on days 1–4 per os (PO) with vehicle (0.5% methylcellulose/0.25% Tween80) or RORγt inhibitors at indicated doses immediately prior to Aldara application. Ear thickness was measured using micro-calipers. Tissues were harvested on day 4, 2 hours following the last compound dose. Naïve mice are completely untreated, receiving neither control vehicle for IMQ nor Compound.\nFor RNA isolation & gene expression, ears are collected on day 4 in RNAlater (Qiagen) and stored at 4°C until processed. Ears were homogenized using Procellys 24 homogenizer & hard tissue homogenizing beads (Bertin Instruments), 2 cycles of 30 seconds @ 6000 rpm in RLT lysis buffer according to manufacturer’s instructions. RNA was isolated using RNAeasy Plus MiniPrep columns (Qiagen) and cDNA generated using SuperScript VILO cDNA Synthesis kit (Invitrogen). Gene expression was quantified using TaqMan Fast Master Mix & and TaqMan FAM-MGB probe sets (Applied Biosystems): Gapdh, Mm99999915_g1, Il17a, Mm00439618_m1, Il17f, Mm00521423_m1, Il22, Mm01226722_g1 & Bclxl, Mm00437783_m1. QPCR reactions were run on QuantStudio 7 instrument. Relative quantification and fold changes were calculated using ddCT values against Gapdh and normalized to control-treated animals. For PDAC xenografts, RNA was isolated from tumor sections using Qiagen RNeasy kit (cat#74106), then cDNA was prepared using 2 μg of RNA and the high capacity RNA to cDNA kit (Applied Biosystems, cat#4387406) as per manufacturer’s instructions. Biomarker expression was determined using Taqman gene expression probes (S1 Table) and Universal master mix (ThermoFisher Scientific cat#4305719) with expression levels normalized to Gapdh.\nFor cytokine production, ears are removed, split in half using forceps and floated, dermis side-down, in DMEM media (Gibco) and incubated at 37° C for 24 hours. Following incubation, media was removed and cytokine production assessed by Luminex assay (Bio-Rad Laboratories)."}, "[3]": {"system": "Bclxl expression in the thymus", "test": "Bclxl expression in thymus after oral dosing (QPCR)", "assay_type": "in vivo, mouse", "conditions": "100 mg/kg PO, C57Bl/6 female mice; S5 Fig", "experimental": "Supplementary file pone.0248034.s009.tif: S5 Fig RORγt inhibitors reduce Bclxl expression in thymus of rodents. C57Bl/6 female mice were dosed PO with 100 mg/kg Compound 1, 2 or 3. Thymic tissues were collected from separate cohorts at 2, 8, 16 and 24 hours post-dose (n = 3 mice/timepoint). RNA was extracted from thymic tissues and Bclxl expression measured by QPCR. […] Time zero (‘0’) used as normalization timepoint and set to 1.0 RQ and mean set at 100% for % inhibition calculation. One-way ANOVA with Bonferroni correction for multiple comparisons used for statistical significance calculations. (TIF) Click here for additional data file."}, "[4]": {"system": "KP/C pancreatic tumors in C57Bl/6 mice", "test": "In vivo tumor growth suppression, KP/C mouse model", "conditions": "single agent vs vehicle; 28 days of dosing", "procedure": "Pancreatic tumor chunks from KP/C mice [20] on C57Bl/6 background were inoculated subcutaneously in the flank of syngeneic mice. […] Tumor volumes and body weight were measured twice each week.\nTo test whether inhibition of RORγt can lead to tumor growth inhibition we utilized the Kras^G12D/+/Trp53^null/Pdx1-cre (KP/C) mouse model of pancreatic cancer [20]. C57Bl/6 mice were inoculated in the flank with KP/C tumor chunks and enrolled in the study when the average tumor volume reached 200 mm^3. […] To evaluate target engagement, we examined changes in expression of a subset of potential RORγt target genes in tumor samples."}, "[5]": {"system": "PDAC PDO model T031P", "test": "In vitro organoid growth assay (CellTiter-Glo 3D), T031P", "assay_type": "cell-based, human", "conditions": "Homo sapiens, 72 h, treated 3 days post-plating", "experimental": "(§1) Patient derived organoids were established as previously described. Briefly, PDX tumor chunks were minced then enzymatically digested into single cells by using a tumor dissociation Kit (Miltenyi, Cat# 130-095-929). Mouse and human cells were separated through magnetic separation, and isolated tumor cells were cultured on Matrigel-coated dishes. […]\n(§2) Organoids were isolated and dissociated as described above. Cell numbers were counted by trypan blue exclusion and 5000 cells per well were plated on the Matrigel coated and pre-warmed 96-well plates. […] 100 μl of CellTiter-Glo® 3D reagent (Promega cat# G9682) was added to each well after desired time points and luminescence signal measured after 30 minutes.\n(§3) Supplementary file pone.0248034.s010.tif: S6 Fig Schematic of Patient-derived organoids (PDO) growth & formation assays. […] After the indicated treatment schedule organoid growth or formation was assessed by CTG assay. […]"}, "[6]": {"system": "human and mouse xenograft tumor growth", "parameters": "method as in PMID 30955884", "conditions": "modulation of RORγt activity; cited from earlier work"}, "[7]": {"system": "PDAC PDO model T031P", "test": "In vitro organoid formation assay (CellTiter-Glo 3D)", "assay_type": "cell-based", "conditions": "Homo sapiens, PDO model not named in the sentence (Fig 8B: T020P and T031P)", "experimental": "Patient derived organoids were established as previously described. Briefly, PDX tumor chunks were minced then enzymatically digested into single cells by using a tumor dissociation Kit (Miltenyi, Cat# 130-095-929). Mouse and human cells were separated through magnetic separation, and isolated tumor cells were cultured on Matrigel-coated dishes. Organoid cultures were maintained by growing on Matrigel in human complete maintenance media: Advanced DMEM/F12 media (Life Technology, Cat# 12634028), 10 mM HEPES (Life Technology, Cat# 15630–080), 1X Glutamax (Life Technology, Cat# 35050–061), 1X Antibiotic-Antimycotic (Life Technology, Cat# 15240–062), 10 mM Nicotinamide (Sigma-Aldrich, Cat# N0636-500G), 250 ng/mL R-Spondin-1 (Peprotech, Cat# 120–38), 100 ng/mL Noggin (Peprotech, Cat# 120-10C), 50 ng/mL EGF (Peprotech, Cat# AF-100-15), 100 ng/mL FGF10 (Peprotech, Cat# 100–26), […] (Sigma-Aldrich, Cat# G9020), 500 nM A83-01 (Sigma, Cat# SML0788), 20 μM Y-27632 (LC Laboratories, Cat# Y-5301), 1X B27 (Life Technology, Cat# 12587010), 10 ng/mL Wnt3a (R&D Systems, Cat# 5036-WN-010), 0.1% Methylcelluose (R&D Systems, Cat# HSC001) and Plasmocin (Invivogen, Cat# Ant-mpp) and were passaged every 10–14 days. Organoids were isolated from Matrigel (Corning, Cat# 08-774-406) in a cell recovery solution (Corning, Cat# CB-40253). Spheroid clusters were then dissociated into a single cell suspension with TrypLE (Gibco, Cat# 12605). […]\nas §2, §3"}, "[8]": {"system": "PDAC PDO model T020P", "test": "In vitro organoid growth assay (CellTiter-Glo 3D), T020P", "assay_type": "cell-based, human", "conditions": "Homo sapiens, 72 h; treated 3 days post-plating; T020P", "experimental": "as §1, §2, §3"}, "[9]": {"system": "psoriasis patients", "parameters": "method as in PMID 29936103", "conditions": "cited from earlier work"}, "[10]": {"system": "MOG35-55-induced EAE in C57BL/6 mice", "test": "Experimental autoimmune encephalomyelitis (EAE) model", "assay_type": "in vivo, mouse", "conditions": "3 mg/kg QD", "experimental": "EAE studies were conducted at Hooke Laboratories. WT female C57BL/6 mice (Taconic Labs) 9 weeks of age were inoculated on day 0 with MOG35-55 peptide (Hooke Kit™ MOG35-55/CFA Emulsion PTX) (EK-2110, Hooke Laboratories, Lawrence MA) followed by intraperitoneal (IP) injections of pertussis toxin at 2 and 24 hours. Mice were treated twice daily (BID, starting at day 1) per os (PO) with vehicle (0.5% MC/0.25% Tween80) or RORγt inhibitors at indicated doses. FTY720 (Gilenya) was dosed once daily (QD) at 3 mg/kg starting at day 1. EAE clinical scores were evaluated daily and scored from 0–5 according to Hooke Lab EAE scoring guidelines http://hookelabs.com/services/cro/eae/MouseEAEscoring.html. Mean clinical scores & body weight loss were assessed and statistical significance calculated by Wilcoxon’s non-parametric or 2-tailed Student’s t-test, respectively. All studies performed were approved in accordance with the Institutional Animal Care and Use Committee of Bristol Myers Squibb and complied according to Bristol Myers Squibb guidelines."}}, "note": "pIC50: −log10 of the molar value."}
{"smiles": "CCS(=O)(=O)c1ccc(CNC(=O)c2cnc3c(c2)CN(C[C@H]2CC[C@H](C(F)(F)F)CC2)[C@H]3C(C)C)nc1", "note": "[VTP-43742]", "values": [{"measurement": "PASI-75 response rate", "setting": "[1]; Week 4", "value": "25–30%"}, {"measurement": "reduction in IL-17A and IL-17F levels in plasma", "setting": "[1]", "value": "50–75%"}]}
{"smiles": "O=C(O)[C@@H]1CCC(c2nn(C(=O)c3c(Cl)cccc3C3CC3)c3cccc(F)c23)=C[C@H]1O", "note": "[Compound 2]", "values": [{"measurement": "Th17-dependent gene expression and inflammation", "setting": "[2]; oral administration, S4 Fig", "value": "inhibition of Th17-dependent gene expression and inflammation"}, {"measurement": "Bclxl expression in the thymus", "setting": "[3]", "value": "modulation of Bclxl expression in the thymus"}]}
{"smiles": "N.N.[Cl][Pt][Cl]", "note": "[cisplatin, reference compound]", "values": [{"measurement": "tumor volume", "setting": "[4]", "value": "significantly reduced"}]}
{"smiles": "OC(c1ccc(-c2ccc(CN3CCN(Cc4ccncc4)CC3)cc2)c(F)c1)(C(F)(F)F)C(F)(F)F", "note": "[SR2211, reference compound]", "values": [{"measurement": "pIC50", "setting": "[5]", "value": "~5.52"}, {"measurement": "human and mouse xenograft tumor growth", "setting": "[6]", "value": "sufficient to inhibit"}, {"measurement": "pIC50", "setting": "[7]", "value": "~6.00"}, {"measurement": "pIC50", "setting": "[8]", "value": "~5.52"}]}
{"smiles": "CCOc1cc([C@@H](CS(C)(=O)=O)N2C(=O)c3cccc(NC(C)=O)c3C2=O)ccc1OC", "note": "[Otezla]", "values": [{"measurement": "reduction of production of IL-17A, IL-17F, IL-22 and TNFα", "setting": "[9]; Week 4", "value": "40–50%"}, {"measurement": "PASI-75 response rate", "setting": "[9]; Week 16", "value": "approximately 30%"}]}
{"smiles": "O=C(O)[C@@H]1CCN(c2nn(C(=O)c3c(Cl)cccc3C(F)(F)F)c3cccc(F)c23)C[C@H]1O", "note": "[Compound 1]", "values": [{"measurement": "ear thickness", "setting": "[2]; day 4, 45 mg/kg PO", "value": "0.17 ± 0.02", "unit": "mm"}, {"measurement": "ear thickness", "setting": "[2]; day 4, 75 mg/kg PO", "value": "0.16 ± 0.008", "unit": "mm"}, {"measurement": "Th17-cytokine gene expression (Il17a, Il17f, Il22) in ear skin", "setting": "[2]; day 4, all dose levels tested (30, 45, 75 mg/kg PO)", "value": "reduced Th17-cytokine gene expression at all dose levels tested"}, {"measurement": "IMQ-induced IL-17A cytokine production in ear tissues", "setting": "[2]; ear tissue floats cultured 24 hours ex vivo, Luminex", "value": "reduced IMQ-induced IL-17A cytokine production"}, {"measurement": "Bclxl expression in the thymus", "setting": "[3]", "value": "modulation of Bclxl expression in the thymus"}]}
{"smiles": "CCCCCCCCc1ccc(CCC(N)(CO)CO)cc1", "note": "[FTY720, reference compound]", "values": [{"measurement": "disease onset", "setting": "[10]; vehicle day 12", "value": 20, "unit": "days"}, {"measurement": "EAE clinical score (0-5)", "setting": "[10]; vehicle peak 3.08 ± 0.28", "value": "0.54 ± 0.234"}]}
